Source: PMC7915940, “Synthesis, Antitumor and Antibacterial Studies of New Shortened Analogues of (KLAKLAK)2-NH2 and Their Conjugates Containing Unnatural Amino Acids” (Molecules, 2021)
Read-outs that look alike come from different tables or passages of the source. Non-standard residues stand in square brackets, D forms with d. Residues, ends and D or L forms follow the SMILES beside them. *: point of attachment. Acetyl(1,8-naphthalimido) = O=C1c2cccc3cccc(c23)C(=O)N1CC(=O)*; Caffeoyl = O=C(/C=C/c1ccc(O)c(O)c1)*; Nle = CCCC[C@H](N)C(=O)O; βAla = NCCC(=O)O

Key:
[1] = test system: MCF-10A cells; type: cell-based, human; conditions: 72 h
Method: (§1) The compounds were studied for antiproliferative activity by standard MTT dye reduction assay. Cell cultures from different cell line types (MCF-10A, MCF-7 and MDA-MB-231) were incubated with the test substances at a concentration of 15 to 2000 μM for 72 h. The antiproliferative activity expressed in % relative to the negative control was determined. The obtained results are shown on Figure 2. MCF-10A is a reliable model for normal human mammary epithelial cells, which serves as a control in experiments to determine antitumor activity. The IC50 values, found in MCF-10A, are used to calculate a selective index (SI), which assesses the potential of a substance to be used as an antitumor agent. We used the following formula to calculate the selective index SI = IC50 of MCF-10A / IC50 of tumor cells. The highest selective index with respect to MCF-7 is shown by the substances: Si3 (SI = 8.35), Si11 (SI = 2.62) and Si1 (SI = 1.24).
(§2) The antiproliferative activity testing was performed on cell cultures from several human cell lines using the standard MTT-dye reduction assay, described by Mosmann. The assay is based on the metabolism of the tetrazolium salt MTT to insoluble formazan by mitochondrial reductases. The formazan concentration can be determined spectrophotometrically. The measured absorption is an indicator of cell viability and metabolic activity. Cell lines: mammary gland type A adenocarcinoma ER+, PR+, HER2- (MCF-7), triple-negative breast cancer ER-, PR-, HER2- (MDA-MB-231) and breast, non-tumorigenic epithelial cell line (MCF-10A) were used in experiments. The cell lines were routinely grown as monolayers in 75 cm^2 tissue culture flasks under standard conditions (described above). Cells were plated at a density of 1 × 10^3 cells in 100 µL in each well of 96-well flat-bottomed microplates and allowed to adhere for 24 h before treatment with test compounds. A concentration range from 15 to 2000 μM was applied for 72 h. The formazan absorption was registered using a microplate reader at λ = 540 nm. Antiproliferative activities were expressed as IC50 values (concentrations required for 50% inhibition of cell growth), calculated using non-linear regression analysis (GraphPad Software, San Diego, CA, USA).

[2] = test system: MDA-MB-231 cells; type: cell-based, human; conditions: 72 h
Method: as §1, §2

[3] = test system: MCF-7 cells; type: cell-based, human; conditions: for selectivity with respect to the studied tumor cell lines (in words): MCF-7 and MDA-MB-231 versus MCF-10A
Method: as §1, §2

[4] = In vitro cytotoxicity testing (3T3 NRU test); type: cell-based; conditions: mouse
Method: The newly synthesized compounds were studied for cytotoxicity by standard method (3T3 NRU-test). The cells were incubated with the test substances at a concentration of 30 to 4000 μM for 24 h. The cytotoxicity expressed, in % relative to the negative control was determined.
The cytotoxicity testing was performed as described by Borenfreund et al. and the latest modification of the validated BALB/3T3 clone A31 Neutral Red Uptake Assay (3T3 NRU test) for cytotoxicity testing. BALB/3T3, clone A31 mouse embryo cells were grown as monolayer in 75 cm^2 tissue culture flasks in DMEM high-glucose (4.5 g/L), supplemented with 10% FBS and antibiotics (Sigma-Aldrich, Schnelldorf, Germany). Cultures were maintained at 37.5 °C in a humidified atmosphere under 5% CO2. Cells were plated at a density of 1 × 10^4 cells in 100 μL culture medium in each well of 96-well flat-bottomed microplates (Biologix, Lenexa, KS, USA) and allowed to adhere for 24 h. The test compounds, dissolved in DMSO and diluted in culture medium to concentration range 30 to 4000 μM were then added and the cell cultures were incubated for additional 24 h. […] After treatment with Neutral Red medium, washing and treatment with the Ethanol/Acetic acid solution (NR Desorb), the absorption was measured on a TECAN microplate reader (TECAN, Grödig, Austria) at wavelength 540 nm.

[5] = test system: Escherichia coli K12 407; type: cell-based; conditions: for antibacterial effect, zones free of microbial growth (in words): agar diffusion, E. coli K12 407
Method: Antibacterial properties of the obtained new peptides and their conjugates were tested against E. coli K12 407 strain. Antibacterial activity of tested compounds was proven through appear of free zone around the loaded disk-paper by means of agar-diffusion method (Figure 3).
All newly synthesized derivatives of (KLAKLAK)2-NH2 at two concentrations 10 μM and 20 μM, were tested against facultative anaerobic gram-negative Esherichia coli NBIMCC K12 407. The strains were obtained from the culture collection of Bulgarian National Bank for Industrial Microorganisms and Cell Cultures (Sofia, Bulgaria) and were cultured in Luria-Bertani (LB) medium (Mumbai, India). The microbiological tests were performed using the agar diffusion method. The overnight pure cultures from tested strains were prepared in liquid LB-medium. A single colony was used for inoculating the liquid LB medium in order to maintain initial bacterial concentration of 1 × 10^7 cfu/mL. 100 µL of bacterial suspensions were seeded on agar plates with solid LB-medium. After 30 min, sterile paper disks 6 mm in diameter were soaked with tested samples in amount of 6 µL and placed on the agar petri dishes surface. The plates were incubated for 24 h at 37 °C. The appeared inhibition zones and their size were measured. The sterile paper disks soaked with water was used as blank. Mean values were calculated by performing the experiments in triplicates.

| Compound | IC50 [2] [µM] | IC50 ([3]; 72 h) [µM] | melting point [°C] | IC50 [1] [µM] | selectivity with respect to the studied tumor cell lines (in words) [3] | IC50 at 24 h [4] [µM] | antibacterial effect, zones free of microbial growth (in words) [5] | IC50 ([1]; MCF-10A, MTT, 15 to 2000 μM, read-out: IC50 of Mean ± SD, Antiproliferative Activity, MCF-10A) [µM] | IC50 ([2]; MDA-MB-231, MTT, 15 to 2000 μM, read-out: IC50 of Mean ± SD, Antiproliferative Activity, MDA-MB-231) [µM] | IC50 ([3]; MCF-7, MTT, 72 h, 15 to 2000 μM, read-out: IC50 of Mean ± SD, Antiproliferative Activity, MCF-7) [µM] | selective index (SI) with respect to MCF-7 ([3]; SI = IC50 of MCF-10A / IC50 of MCF-7) | IC50 at 24 h ([4]; BALB/3T3 cells, NRU, 24 h, 30 to 4000 μM, read-out: IC50 of Mean ± SD, Cytotoxicity, BALB/3T3) [µM] | Average inhibition zones size ([5]; 20 μM, E. coli K12 407, 24 h at 37 °C, three replicates ± SD) [mm] | selective index (SI) with respect to MCF-7 ([3]; 72 h) | activity against Escherichia coli K12 407 (in words) ([5]; 20 μM) |
| --- | --- | --- | --- | --- | --- | --- | --- | --- | --- | --- | --- | --- | --- | --- | --- |
| CC(C)C[C@H](NC(=O)[C@H](CCCCN)NC(=O)/C=C/c1ccc(O)c(O)c1)C(=O)N[C@@H](C)C(=O)N[C@@H](CCCCN)C(=O)N[C@@H](CC(C)C)C(=O)N[C@@H](C)C(=O)N[C@@H](CCCCN)C(N)=O [Si8, Caf-KLAKLAK-NH2] (Caffeoyl-KLAKLAK-NH2) | 514 ± 26.8 | 129 ± 8.03 | 154 | 136 ± 7.09 | do not show selectivity | 710 ± 11.9 | clear zones free of microbial growth | – | – | – | – | – | – | – | – |
| CC(C)C[C@H](NC(=O)[C@H](CCCCN)NC(=O)[C@H](C)NC(=O)[C@H](CC(C)C)NC(=O)[C@H](CCCCN)NC(=O)[C@H](CCCCN)NC(=O)[C@H](C)NC(=O)[C@H](CC(C)C)NC(=O)[C@H](CCCCN)NC(=O)[C@H](C)NC(=O)[C@H](CC(C)C)NC(=O)[C@@H](N)CCCCN)C(=O)N[C@@H](C)C(=O)N[C@@H](CCCCN)C(N)=O [Si1, (KLAKLAK)2-NH2] | – | – | – | – | – | – | clear zones free of microbial growth | 154 ± 6.53 | 746 ± 7.6 | 124 ± 8.12 | 1.24 | 365 ± 4.08 | 5 ± 0.15 | – | – |
| CC(C)C[C@H](NC(=O)[C@H](CCCCN)NC(=O)/C=C/c1ccc(O)c(O)c1)C(=O)NCCC(=O)N[C@@H](CCCCN)C(=O)N[C@@H](CC(C)C)C(=O)NCCC(=O)N[C@@H](CCCCN)C(N)=O [Si11, Caf-KLβAKLβAK-NH2] (Caffeoyl-KL[βAla]KL[βAla]K-NH2) | 1090 ± 70.7 | 229 ± 7.18 | – | 597 ± 53 | significant selective index | 742 ± 18.5 | – | – | – | – | – | – | – | 2.62 | – |

Second part, led by results:

| IC50 [2] [µM] | IC50 ([3]; 72 h) [µM] | melting point [°C] | Compound | IC50 [1] [µM] | selectivity with respect to the studied tumor cell lines (in words) [3] | IC50 at 24 h [4] [µM] | antibacterial effect, zones free of microbial growth (in words) [5] | IC50 ([1]; MCF-10A, MTT, 15 to 2000 μM, read-out: IC50 of Mean ± SD, Antiproliferative Activity, MCF-10A) [µM] | IC50 ([2]; MDA-MB-231, MTT, 15 to 2000 μM, read-out: IC50 of Mean ± SD, Antiproliferative Activity, MDA-MB-231) [µM] | IC50 ([3]; MCF-7, MTT, 72 h, 15 to 2000 μM, read-out: IC50 of Mean ± SD, Antiproliferative Activity, MCF-7) [µM] | selective index (SI) with respect to MCF-7 ([3]; SI = IC50 of MCF-10A / IC50 of MCF-7) | IC50 at 24 h ([4]; BALB/3T3 cells, NRU, 24 h, 30 to 4000 μM, read-out: IC50 of Mean ± SD, Cytotoxicity, BALB/3T3) [µM] | Average inhibition zones size ([5]; 20 μM, E. coli K12 407, 24 h at 37 °C, three replicates ± SD) [mm] | selective index (SI) with respect to MCF-7 ([3]; 72 h) | activity against Escherichia coli K12 407 (in words) ([5]; 20 μM) |
| --- | --- | --- | --- | --- | --- | --- | --- | --- | --- | --- | --- | --- | --- | --- | --- |
| > 2000 | 1200 ± 132 | – | CC(C)C[C@H](NC(=O)[C@H](CCCCN)NC(=O)CN1C(=O)c2cccc3cccc(c23)C1=O)C(=O)N[C@@H](C)C(=O)N[C@@H](CCCCN)C(=O)N[C@@H](CC(C)C)C(=O)N[C@@H](C)C(=O)N[C@@H](CCCCN)C(N)=O [Si7, 1,8-naphthalimideG-KLAKLAK-NH2] ({Acetyl(1,8-naphthalimido)}-KLAKLAK-NH2) | 1140 ± 64.5 | do not show selectivity | 3420 ± 51.3 | – | – | – | – | – | – | – | – | – |
| 1050 ± 49.8 | 593 ± 60.3 | – | CCCC[C@H](NC(=O)[C@H](CCCCN)NC(=O)CN1C(=O)c2cccc3cccc(c23)C1=O)C(=O)N[C@@H](C)C(=O)N[C@@H](CCCCN)C(=O)N[C@@H](CCCC)C(=O)N[C@@H](C)C(=O)N[C@@H](CCCCN)C(N)=O [Si14, 1,8-naphthalimideG-KnLAKnLAK-NH2] ({Acetyl(1,8-naphthalimido)}-K[Nle]AK[Nle]AK-NH2) | 631 ± 51.2 | No selectivity | 2890 ± 61.4 | clear zones free of microbial growth | – | – | – | – | – | – | – | moderate activity |
